Read-outs that look alike come from different tables or passages of the source.
What was measured:
[1] = DISTOL-1 randomized Phase IIB study of oral treprostinil diethanolamine versus placebo, digital ulcers in systemic sclerosis; assay type: in vivo, human
Description: Primary: To assess the effect of oral treprostinil in reducing net ulcer burden compared to placebo in patients with systemic sclerosis (SSc) as measured by the change in net ulcer burden from Baseline to Follow-up between treatment groups at 20 weeks. […] Target enrollment of […] patients to complete 128 subjects. […] Primary analysis: effect of treprostinil versus placebo on change in net ulcer burden at Week 20 evaluated using non-parametric analysis of covariance within the framework of the extended Cochran-Mantel-Haenszel test.

[2] = for subjects who tolerated the dose: 10 SSc patients
Method: During a phase I PK trial of oral treprostinil in SSc patients, the goal was to quantify changes in perfusion as assessed by laser Doppler imaging (LDI) and to determine whether improvements in perfusion correlated with drug concentration.
10 SSc patients with recent or active DU participated in the study.
Dosing: Oral treprostinil titrated up to 4 mg twice daily (BID) as tolerated over 6-8 weeks. Pharmokinetics (PK) and laser Doppler imaging (LDI) assessments: performed when subjects achieved the 2 mg and 4 mg (or maximally tolerated dose) doses. […] 8 serial measures of digital perfusion and drug concentration were obtained over 12 hours at each of the 2 study visits.
Repeated measures analyses were performed using random effects model. Dependent variables were perfusion and skin temperature. The predictor of interest was log-transformed drug concentration. Covariates with p-values less than 0.15 were kept in the model. All data was used, across time points, visits, and hands.

[3] = 4 mg visit (but not the 2 mg visit), adjusted for time points of Doppler assessment
[4] = Subject 6, 4 mg visit, baseline at drug trough prior to administration of 4 mg dose
[5] = Subject 6, 4 mg visit, twelve hours after dosing

Structure (SMILES): CCCCC[C@H](O)CC[C@@H]1[C@H]2Cc3cccc(OCC(=O)O)c3C[C@H]2C[C@H]1O.OCCNCCO [treprostinil diethanolamine, Treprostinil diethanolamine]
- change in net ulcer burden at Week 20 ([1]; ACA negative subset of patients): statistically significant changes were observed
- Time to Cardinal Ulcer Healing (mean days) ([1]; Active n = 71): 76.3 ± 35 days
- Time to all Ulcers Healed (mean days) ([1]; Active n = 71): 90.2 ± 35.6 days
- Mean # of new ulcers ([1]; Active n = 71, listed under new ulcers formed after Week 5): 0.9
- All Ulcers Healed ([1]; Active n = 71, number (%)): 35 (49%)
- Any new ulcers formed after Week 5? At least one new ([1]; Active n = 71, number (%)): 27 (38%)
- Any new ulcers formed after Week 5? No new ([1]; Active n = 71, number (%)): 30 (42%)
- Any new ulcers formed during study? At least one new ([1]; Active n = 71, number (%)): 39 (55%)
- Any new ulcers formed during study? No new ([1]; Active n = 71, number (%)): 24 (34%)
- Cardinal Ulcer Healed ([1]; Active n = 71, number (%)): 44 (62%)
- Discontinuations: Adverse Event ([1]; Active n = 72, number (%) of subjects): 9 (13%)
- Mean Change in Net Ulcer Burden Week 20 P value ([1]; Subgroup (ACA) Negative (n = 40/34)): 0.01
- Mean Change in Net Ulcer Burden Week 20 P value ([1]; Subgroup (ACA) Positive (n = 19/29)): 0.97
- Mean Change in Net Ulcer Burden Week 20 P value ([1]; Subgroup (ATA) Negative (n = 32/38)): 0.58
- Mean Change in Net Ulcer Burden Week 20 P value ([1]; Subgroup (ATA) Positive (n = 27/22)): 0.06
- Mean Change in Net Ulcer Burden Week 20 P value ([1]; Subgroup >2 active ulcers at Baseline (n = 10/10)): 0.51
- Mean Change in Net Ulcer Burden Week 20 P value ([1]; Subgroup ACA Negative/ATA Positive (n = 20/15)): 0.013
- Mean Change in Net Ulcer Burden Week 20 P value ([1]; Subgroup Diffuse SSc (n = 31/21)): 0.32
- Mean Change in Net Ulcer Burden Week 20 P value ([1]; Subgroup Limited SSc (n = 42/55 Active/Placebo)): 0.42
- Mean Change in Net Ulcer Burden Week 20 P value ([1]; Subgroup No PDEI background (n = 59/63)): 0.21
- Mean Change in Net Ulcer Burden Week 20 P value ([1]; Subgroup PDEI background (n = 12/13)): 0.90
- Mean Change in Net Ulcer Burden Week 20 P value ([1]; Subgroup ≦2 active ulcers at Baseline (n = 61/66)): 0.10
- Patient Global and Digital Ulcer pain VAS ([1]; Week 20): Improvement not reaching statistical significance
- symptomatic relief of pain and functional deficits associated with ischemic vascular disease ([1]; patients with scleroderma and digital ulcers, orally administered): provided symptomatic relief of pain
- change in net ulcer burden at Week 20, primary analysis ([1]; total population, versus placebo): did not achieve statistical significance
- subjects who tolerated the dose ([2]; 2 mg BID by the first PK visit): Nine
- subjects who tolerated the dose ([2]; 4 mg BID by the 2nd PK visit): 6 subjects
- association of digital skin temperature with log-transformed plasma concentration [2, 3]: positively associated
- association of perfusion with log-transformed plasma concentration [2, 3]: positively associated
- perfusion versus drug exposure ([2]; AUCs, FIG. 4): increase in perfusion was observed with an increase in drug exposure
- plasma concentration versus dose ([2]; AUCs, FIG. 4): increase in plasma concentration was observed with an increase in dose
- mean perfusion (laser Doppler imaging) [2, 4]: 89.3 units
- skin temperature [2, 4]: 25 °C
- perfusion (laser Doppler imaging) [2, 5]: 298.3 units
- skin temperature [2, 5]: 32 °C
- adverse effects ([2]; titrated up to 4 mg BID over 6-8 weeks): transient and typical of prostacyclin therapy

From US20120004307A1, “ORAL TREATMENT OF DIGITAL ISCHEMIC LESIONS” (priority 2010, published 2012)
